This passage reports logD and Papp results from ChEMBL document CHEMBL1255222, “Exploring the neuroleptic substituent in octoclothepin: potential ligands for positron emission tomography with subnanomolar affinity for α(1)-adrenoceptors” (J Med Chem, 2010).

One series in a line: physchem. To be noted: octanol/water.
Series [1] is described as follows: Apparent permeability across human Caco-2 cells. The class given is ADME, cell-based.

Take `CN1CCC(c2cn(-c3ccc(F)cc3)c3ccc(-c4cncnc4)cc23)CC1`: the logD (commonly lipophilicity at a set pH, counting ionised and neutral species) in “physchem” turned out to be 1.9. Also, the Papp (commonly a coefficient for how fast a substance crosses the barrier) in series [1] was found to be 13 ×10⁻⁶ cm/s.

For the compound `CC(=O)NCc1ccc2c(c1)C(N1CCN(C)CC1)Cc1ccccc1S2` (racemic), the logD in the series “physchem” is 2.65. The apparent permeability coefficient (Papp) in series [1] was 33 ×10⁻⁶ cm/s.

Regarding `CC(C)C(=O)NCc1ccc2c(c1)C(N1CCN(C)CC1)Cc1ccccc1S2` (racemic), the logD in the series “physchem” amounted to 3.1. In series [1], the Papp came out at 57 ×10⁻⁶ cm/s.

Take `Cn1nnc(-c2ccc3c(c2)c(C2CCN(CCN4CCNC4=O)CC2)cn3-c2ccc(F)cc2)n1`: in the series “physchem”, the log distribution coefficient (logD) turned out to be 3.06. The Papp in series [1] came out at 12 ×10⁻⁶ cm/s.

Turning to `CCN1CCC[C@H]1CNC(=O)c1c(O)c(Cl)cc(Cl)c1OC` [RACLOPRIDE], the Papp in series [1] worked out at 66 ×10⁻⁶ cm/s.
